Assay results published in patent US10457654B2 (GENENTECH, INC., priority 2017, dated 2019).
Where a name gives a salt, the structure may show the parent alone. Read-outs that look alike come from different tables or passages of the source.

Target: hNav1.7 (Homo sapiens (Human), UniProt Q15858)
Test: Tritiated compound binding to membranes from cells expressing hNav1.7 and the β1 subunit, competitive binding (LBA, Ex. 243A)
Settings: 100 pM [3H]compound, 18 h, room temperature
Description: Tritiated Compound Binding to Membranes Isolated from Cells that Heterologously Express hNav1.7 and the β1 Subunit
Preparation of membranes containing recombinantly expressed sodium channels: Frozen recombinant cell pellets were thawed on ice and diluted to 4 times the cell pellet weight with ice cold 50 mM Tris HCl, pH 7.4 buffer. The cell suspensions were homogenized on ice using a motorized glass dounce homogeniser. Homogenates were further diluted 8.4 times with ice cold 50 mM Tris HCl, pH 7.4 buffer and then centrifuged at 200×g at 4° C. for 15 min. The supernatants were collected and centrifuged at 10000×g at 4° C. for 50 min. […] The homogenized membranes were then processed through a syringe equipped with a 26 gauge needle. Protein concentrations were determined by Bradford Assay and the membranes were stored at −80° C.
Radioligand Binding Studies: Saturation experiments. A competitive NaV1.7 inhibitor having a methyl group was tritiated. Three tritiums were incorporated in place of methyl hydrogens to generate [^3H]compound. Binding of this radioligand was performed in 5 mL borosilicate glass test tubes at room temperature. […] Non-specific binding was determined in the presence of 1 μM unlabeled compound. After 18h, the reactants were filtered through GF/C glass fiber filters presoaked in 0.5% w/v polyethylene imine. […] [^3H]compound bound to filters was quantified by liquid scintillation counting.
Competitive binding experiments: Binding reactions were performed in 96-well polypropylene plates at room temperature for 18h. In 360 μL, membranes were incubated with 100 pM [^3H]compound and increasing concentrations of Test Compound. Non-specific binding was defined in the presence of 1 μM unlabeled compound. Reactions were transferred and filtered through 96-well glass fiber/C filter plates presoaked with 0.5% polyethylene imine. The filtered reactions were washed 5 times with 200 μL ice cold buffer containing 0.25% BSA. Bound radioactivity was determined by liquid scintillation counting.
Data Analysis: For saturation experiments, non-specific binding was subtracted from total binding to provide specific binding and these values were recalculated in terms of pmol ligand bound per mg protein. Saturation curves were constructed and dissociation constants were calculated using the single site ligand binding model: Beq=(Bmax*X)/(X+Kd), where Beq is the amount of ligand bound at equilibrium, Bmax is the maximum receptor density, Kd is the dissociation constant for the ligand, and X is the free ligand concentration. For competition studies percent inhibition was determined and IC50 values were calculated using a 4 parameter logistic model (% inhibition=(A+((B−A)/(1+((x/C)^D)))) using XLfit, where A and B are the maximal and minimum inhibition respectively, C is the IC50 concentration and D is the (Hill) slope.

[1] = read-out: Nav1.7 LBA (Ex. 243A) IC50
[2] = read-out: Nav1.7 (LBA) (Ex. 243A)

Sequence of hNav1.7 (Q15858 whole entry, looked up): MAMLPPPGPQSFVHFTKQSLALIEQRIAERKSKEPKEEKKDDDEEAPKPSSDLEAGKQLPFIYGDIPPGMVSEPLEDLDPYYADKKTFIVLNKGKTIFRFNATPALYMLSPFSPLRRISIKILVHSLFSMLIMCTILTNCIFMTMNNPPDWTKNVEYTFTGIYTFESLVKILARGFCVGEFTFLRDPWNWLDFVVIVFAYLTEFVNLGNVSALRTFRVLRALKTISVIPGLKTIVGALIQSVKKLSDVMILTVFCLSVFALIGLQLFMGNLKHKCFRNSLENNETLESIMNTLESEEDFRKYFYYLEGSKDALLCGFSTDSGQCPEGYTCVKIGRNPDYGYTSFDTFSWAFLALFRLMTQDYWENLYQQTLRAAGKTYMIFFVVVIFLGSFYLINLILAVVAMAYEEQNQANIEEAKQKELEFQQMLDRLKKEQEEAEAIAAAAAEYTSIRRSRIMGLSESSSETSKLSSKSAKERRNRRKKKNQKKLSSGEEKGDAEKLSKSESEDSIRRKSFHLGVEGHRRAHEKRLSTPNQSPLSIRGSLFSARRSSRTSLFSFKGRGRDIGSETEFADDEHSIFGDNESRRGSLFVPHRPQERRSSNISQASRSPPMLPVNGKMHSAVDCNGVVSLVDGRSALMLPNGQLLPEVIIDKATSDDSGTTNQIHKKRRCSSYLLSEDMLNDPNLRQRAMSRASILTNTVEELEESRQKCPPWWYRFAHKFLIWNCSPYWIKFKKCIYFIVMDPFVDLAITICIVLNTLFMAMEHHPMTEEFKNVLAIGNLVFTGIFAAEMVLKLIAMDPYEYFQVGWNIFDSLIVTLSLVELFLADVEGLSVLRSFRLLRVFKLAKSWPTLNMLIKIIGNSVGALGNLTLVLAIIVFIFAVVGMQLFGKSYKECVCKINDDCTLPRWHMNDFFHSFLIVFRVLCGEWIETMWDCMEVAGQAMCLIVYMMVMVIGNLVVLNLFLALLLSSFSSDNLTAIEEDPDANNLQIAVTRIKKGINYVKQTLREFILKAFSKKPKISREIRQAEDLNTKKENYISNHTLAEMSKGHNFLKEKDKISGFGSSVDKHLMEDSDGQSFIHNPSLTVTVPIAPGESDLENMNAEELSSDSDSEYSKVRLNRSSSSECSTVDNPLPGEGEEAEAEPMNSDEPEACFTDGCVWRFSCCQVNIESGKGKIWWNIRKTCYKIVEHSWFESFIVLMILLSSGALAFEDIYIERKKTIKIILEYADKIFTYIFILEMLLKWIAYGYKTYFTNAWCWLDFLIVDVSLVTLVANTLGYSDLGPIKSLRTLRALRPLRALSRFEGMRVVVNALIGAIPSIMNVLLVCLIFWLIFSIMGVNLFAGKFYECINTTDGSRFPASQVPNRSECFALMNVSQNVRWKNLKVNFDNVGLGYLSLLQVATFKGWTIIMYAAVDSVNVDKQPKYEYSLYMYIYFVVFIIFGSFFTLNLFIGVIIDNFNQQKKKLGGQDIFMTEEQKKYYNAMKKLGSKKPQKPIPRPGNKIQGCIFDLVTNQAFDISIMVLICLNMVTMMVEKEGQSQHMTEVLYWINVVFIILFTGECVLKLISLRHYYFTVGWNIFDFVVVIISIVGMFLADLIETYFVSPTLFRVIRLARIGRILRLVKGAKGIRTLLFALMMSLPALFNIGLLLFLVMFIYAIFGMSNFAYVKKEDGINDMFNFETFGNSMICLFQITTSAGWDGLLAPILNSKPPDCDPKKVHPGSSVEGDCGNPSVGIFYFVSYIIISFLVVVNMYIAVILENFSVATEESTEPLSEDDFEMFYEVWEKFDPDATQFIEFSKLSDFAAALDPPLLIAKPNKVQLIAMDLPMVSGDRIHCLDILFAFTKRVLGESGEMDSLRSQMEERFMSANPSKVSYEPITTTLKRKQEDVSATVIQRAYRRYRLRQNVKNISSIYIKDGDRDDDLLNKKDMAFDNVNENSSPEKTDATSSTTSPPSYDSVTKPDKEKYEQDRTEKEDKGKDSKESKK
Sequence of hNav1.7 (Q07699 whole entry partner, looked up): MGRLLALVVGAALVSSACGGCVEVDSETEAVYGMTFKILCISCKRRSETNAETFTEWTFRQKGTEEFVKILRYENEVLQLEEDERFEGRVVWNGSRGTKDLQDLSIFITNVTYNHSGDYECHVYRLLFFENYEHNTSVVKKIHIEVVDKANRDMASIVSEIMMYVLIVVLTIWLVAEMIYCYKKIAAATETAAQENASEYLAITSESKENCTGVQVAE

IC50 [1]	IC50 [2]	SMILES
13 nM		CN(C)[C@H]1CCCC[C@@H]1Nc1cc(F)c(S(=O)(=O)Nc2nccs2)cc1C1CCC1 [Example 91, 5-cyclobutyl-4-(((1S,2S)-2-(dimethylamino)cyclohexyl)amino)-2-fluoro-N-(thiazol-2-yl)benzenesulfonamide]
122 nM		CNC(=O)CN(C)[C@H]1CCCC[C@@H]1Nc1cc(F)c(S(=O)(=O)Nc2nccs2)cc1Cl [Example 80, 2-(((1S,2S)-2-((2-chloro-5-fluoro-4-(N-(thiazol-2-yl)sulfamoyl)phenyl)amino)cyclohexyl)(methyl)amino)-N-methylacetamide formate]
42.1 nM		CN(C)[C@H]1CCCC[C@@H]1Nc1cc(F)c(S(=O)(=O)Nc2ncc(F)s2)cc1Cl [Example 49, 5-chloro-4-(((1S,2S)-2-(dimethylamino)cyclohexyl)amino)-2-fluoro-N-(5-fluorothiazol-2-yl)benzenesulfonamide]
24.3 nM		CN(C[C@@H](O)C(F)(F)F)[C@H]1CCCC[C@@H]1Nc1cc(F)c(S(=O)(=O)Nc2nccs2)cc1Cl [Example 95, 5-chloro-2-fluoro-4-(((1S,2S)-2-(methyl((R)-3,3,3-trifluoro-2-hydroxypropyl)amino)cyclohexyl)amino)-N-(thiazol-2-yl)benzenesulfonamide]
	214 nM	O=S(=O)(Nc1nccs1)c1cc(Cl)c(N[C@H]2CCCC[C@@H]2N2CCC2)cc1F [Example 21, 4-(((1S,2S)-2-(azetidin-1-yl)cyclohexyl)amino)-5-chloro-2-fluoro-N-(thiazol-2-yl)benzenesulfonamide]
	149 nM	Cc1csc(NS(=O)(=O)c2cc(Cl)c(N[C@H]3CCCC[C@@H]3N(C)C)cc2F)n1 [Example 27, 5-chloro-4-(((1 S,2S)-2-(dimethylamino)cyclohexyl)amino)-2-fluoro-N-(4-methylthiazol-2-yl)benzenesulfonamide formate]
	26.9 nM	CN(C)[C@H]1CCCC[C@@H]1Nc1cc(F)c(S(=O)(=O)Nc2nccs2)cc1C1CC1 [Example 15, 5-cyclopropyl-4-[[(1S,2S)-2-(dimethylamino)cyclohexyl]amino]-2-fluoro-N-thiazol-2-yl-benzenesulfonamide]
3.42 nM		CNCCN(C)[C@H]1CCCC[C@@H]1Nc1cc(F)c(S(=O)(=O)Nc2nccs2)cc1Cl [Example 58, 5-chloro-2-fluoro-4-(((1S,2S)-2-(methyl(2-(methylamino)ethyl)amino)cyclohexyl)amino)-N-(thiazol-2-yl)benzenesulfonamide formate]
	21.9 nM	CN(C)[C@H]1CCCC[C@@H]1Nc1cc(F)c(S(=O)(=O)Nc2nccs2)cc1Br [Example 14, 5-bromo-4-[[(1S,2S)-2-(dimethylamino)cyclohexyl]amino]-2-fluoro-N-thiazol-2-yl-benzenesulfonamide]
59.9 nM		CN(CCO)[C@H]1CCCC[C@@H]1Nc1cc(F)c(S(=O)(=O)Nc2ccncn2)cc1Cl [Example 89, 5-chloro-2-fluoro-4-(((1S,2S)-2-((2-hydroxyethyl)(methyl)amino)cyclohexyl)amino)-N-(pyrimidin-4-yl)benzenesulfonamide formate]
	8.4 nM	CN(C)[C@H]1CC(C(F)(F)F)=CC[C@@H]1Nc1cc(F)c(S(=O)(=O)Nc2nccs2)cc1Cl [Example 23]
2.42 nM		CN(C1CNC1)[C@H]1CCCC[C@@H]1Nc1cc(F)c(S(=O)(=O)Nc2nccs2)cc1C1CC1 [Example 57, 4-(((1S,2S)-2-(azetidin-3-yl(methyl)amino)cyclohexyl)amino)-5-cyclopropyl-2-fluoro-N-(thiazol-2-yl)benzenesulfonamide dihydrochloride]
	165 nM	CN(C)[C@H]1CCC[C@@H]1Nc1cc(F)c(S(=O)(=O)Nc2nccs2)cc1Cl [Example 12, 5-chloro-4-(((1S,2S)-2-(dimethylamino)cyclopentyl)amino)-2-fluoro-N-(thiazol-2-yl)benzenesulfonamide]
27.2 nM		CCN[C@H]1CCCC[C@@H]1Oc1cc(F)c(S(=O)(=O)Nc2nccs2)cc1Cl [Example 42, 5-chloro-4-(((1S,2S)-2-(ethylamino)cyclohexyl)oxy)-2-fluoro-N-(thiazol-2-yl)benzenesulfonamide]
8.48 nM		CCN[C@H]1CCCC[C@@H]1Nc1cc(F)c(S(=O)(=O)Nc2nccs2)cc1Br [Example 52, 5-bromo-4-(((1S,2S)-2-(ethylamino)cyclohexyl)amino)-2-fluoro-N-(thiazol-2-yl)benzenesulfonamide formate]
3000 nM		O=S(=O)(Nc1cccc(F)n1)c1cc(Cl)c(N[C@@H]2CCCC[C@H]2N2CCCC2)cc1F [Example 98, 5-chloro-2-fluoro-N-(6-fluoropyridin-2-yl)-4-(((1R,2R)-2-(pyrrolidin-1-yl)cyclohexyl)amino)benzenesulfonamide]
9.28 nM		CN(CC(N)=O)[C@H]1CCCC[C@@H]1Nc1cc(F)c(S(=O)(=O)Nc2nccs2)cc1Cl [Example 79, 2-(((1S,2S)-2-((2-chloro-5-fluoro-4-(N-(thiazol-2-yl)sulfamoyl)phenyl)amino)cyclohexyl)(methyl)amino)acetamide formate]
558 nM		O=S(=O)(Nc1ccncn1)c1cc(Cl)c(N[C@H]2CCCC[C@@H]2N2CCC(O)C2)cc1F (stereo partly drawn) [Example 61, 5-chloro-2-fluoro-4-(((1S,2S)-2-(3-hydroxypyrrolidin-1-yl)cyclohexyl)amino)-N-(pyrimidin-4-yl)benzenesulfonamide]
95.6 nM		CN(C)[C@H]1CCCC[C@@H]1Oc1cc(F)c(S(=O)(=O)Nc2nccs2)cc1C(F)(F)F [Example 78, 4-(((1S,2S)-2-(dimethylamino)cyclohexyl)oxy)-2-fluoro-N-(thiazol-2-yl)-5-(trifluoromethyl)benzenesulfonamide formate]
	994 nM	CCN(Cc1ccccc1)[C@H]1CCCC[C@@H]1Nc1cc(F)c(S(=O)(=O)Nc2nccs2)cc1Cl [Example 6, 4-(((1S,2S)-2-(benzyl(ethyl)amino)cyclohexyl)amino)-5-chloro-2-fluoro-N-(thiazol-2-yl)benzenesulfonamide]
16.6 nM		O=S(=O)(Nc1nccs1)c1cc(Cl)c(N[C@H]2CCCC[C@@H]2N2CC[C@@H](O)C2)cc1F [Example 68, 5-chloro-2-fluoro-4-(((1S,2S)-2-((R)-3-hydroxypyrrolidin-1-yl)cyclohexyl)amino)-N-(thiazol-2-yl)benzenesulfonamide]
1130 nM		CCN[C@@H]1CCCC[C@H]1Oc1cc(F)c(S(=O)(=O)Nc2nccs2)cc1Cl [Example 43, 5-chloro-4-(((1R,2R)-2-(ethylamino)cyclohexyl)oxy)-2-fluoro-N-(thiazol-2-yl)benzenesulfonamide]
2.64 nM		CN(C1CNC1)[C@H]1CCCC[C@@H]1Oc1cc(F)c(S(=O)(=O)Nc2nccs2)cc1C1CC1 [Example 90, 4-(((1S,2S)-2-(azetidin-3-yl(methyl)amino)cyclohexyl)oxy)-5-cyclopropyl-2-fluoro-N-(thiazol-2-yl)benzenesulfonamide formate]
57.8 nM		O=S(=O)(Nc1cccc(F)n1)c1cc(Cl)c(N[C@H]2CCCC[C@@H]2N2CCC(O)C2)cc1F (stereo partly drawn) [Example 62, 5-chloro-2-fluoro-N-(6-fluoropyridin-2-yl)-4-(((1S,2S)-2-(3-hydroxypyrrolidin-1-yl)cyclohexyl)amino)benzenesulfonamide]
252 nM		CN(C)[C@H]1CCCC[C@@H]1Nc1cc(F)c(S(=O)(=O)Nc2cccc(Cl)n2)cc1Cl [Example 85, 5-chloro-N-(6-chloropyridin-2-yl)-4-(((1S,2S)-2-(dimethylamino)cyclohexyl)amino)-2-fluorobenzenesulfonamide]
3.46 nM		CN(CCO)[C@H]1CCCC[C@@H]1Nc1cc(F)c(S(=O)(=O)Nc2nccs2)cc1C1CC1 [Example 56, 5-cyclopropyl-2-fluoro-4-(((1S,2S)-2-((2-hydroxyethyl)(methyl)amino)cyclohexyl)amino)-N-(thiazol-2-yl)benzenesulfonamide hydrochloride]

SMILES	IC50 [1]	IC50 [2]
CN(CCF)[C@H]1CCCC[C@@H]1Nc1cc(F)c(S(=O)(=O)Nc2nccs2)cc1Cl [Example 37, 5-chloro-2-fluoro-4-(((1S,2S)-2-((2-fluoroethyl)(methyl)amino)cyclohexyl)amino)-N-(thiazol-2-yl)benzenesulfonamide formate]	2.76 nM	
CCN[C@H]1CCCC[C@@H]1Nc1cc(F)c(S(=O)(=O)Nc2nccs2)cc1Cl [Example 4, 2,2,2-trifluoroacetate]		4.15 nM
